Earlier results in patent publication US20190192552A1, “PHARMACEUTICAL COMPOSITIONS AND METHODS FOR TREATING KELOIDS, HY[…] AND WOUNDS, AND FOR PROVIDING IMPROVED SKIN CARE” (Cormedix Inc., priority 2017, published 2019).

Tested on: Microbes
Conditions: microbes killed and resulting toxins inactivated

For `O=S1(=O)CCN(CN2CCS(=O)(=O)NC2)CN1` [taurolidine, 4,4′-methylene-bis(tetrahydro-1,2,4-thiadiazine)-1,1,1′,1′,-tetraoxide], the “destruction time in vitro” value is listed as “approximately 30 minutes”.
